Assay results from ChEMBL document CHEMBL1909046, “DrugMatrix in vitro pharmacology data”.
pIC50, pKi: −log10 of the molar value.

Key:
[1] = biological target: T1, Cysteinyl leukotriene receptor 1 (Homo sapiens, UniProt Q9Y271); assay type: cell membranes, Membrane; conditions: cho-k1; note: in other assays of this panel Not Active means under 50% inhibition at 10 µM
T1 sequence (Q9Y271 whole entry): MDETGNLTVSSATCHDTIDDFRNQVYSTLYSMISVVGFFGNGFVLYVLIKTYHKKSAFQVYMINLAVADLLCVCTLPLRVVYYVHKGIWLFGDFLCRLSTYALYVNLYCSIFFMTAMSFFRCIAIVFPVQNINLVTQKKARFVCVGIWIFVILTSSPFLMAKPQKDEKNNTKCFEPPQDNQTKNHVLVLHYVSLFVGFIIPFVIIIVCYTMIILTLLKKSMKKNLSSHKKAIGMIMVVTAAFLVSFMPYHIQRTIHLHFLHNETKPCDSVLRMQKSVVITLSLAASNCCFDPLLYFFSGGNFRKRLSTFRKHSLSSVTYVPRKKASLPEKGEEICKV

[2] = DRUGMATRIX: Sodium/nucleoside co-transporter radioligand binding (ligand: nitrobenzylthioinosine); assay type: cell membranes, Cavia porcellus, Dunkin-Hartley, Cerebral cortex, Membrane; conditions: Not Active = under 50% inhibition at 10 µM
[3] = DRUGMATRIX: Tumor Necrosis Factor (TNF), Non-Selective radioligand binding (ligand: [125I] TNF-alpha); assay type: cell membranes, Membrane; conditions: u-937; Not Active = under 50% inhibition at 10 µM
[4] = biological target: T2, Alpha-1B adrenergic receptor (Rattus norvegicus, UniProt P15823); test: DRUGMATRIX: Alpha-1B adrenergic receptor radioligand binding (ligand: prazosin); assay type: cell membranes, Wistar, Liver, Membrane; conditions: Not Active = under 50% inhibition at 10 µM; for pIC50: read-out: IC50; for pKi: read-out: Ki
T2 sequence (P15823 whole entry): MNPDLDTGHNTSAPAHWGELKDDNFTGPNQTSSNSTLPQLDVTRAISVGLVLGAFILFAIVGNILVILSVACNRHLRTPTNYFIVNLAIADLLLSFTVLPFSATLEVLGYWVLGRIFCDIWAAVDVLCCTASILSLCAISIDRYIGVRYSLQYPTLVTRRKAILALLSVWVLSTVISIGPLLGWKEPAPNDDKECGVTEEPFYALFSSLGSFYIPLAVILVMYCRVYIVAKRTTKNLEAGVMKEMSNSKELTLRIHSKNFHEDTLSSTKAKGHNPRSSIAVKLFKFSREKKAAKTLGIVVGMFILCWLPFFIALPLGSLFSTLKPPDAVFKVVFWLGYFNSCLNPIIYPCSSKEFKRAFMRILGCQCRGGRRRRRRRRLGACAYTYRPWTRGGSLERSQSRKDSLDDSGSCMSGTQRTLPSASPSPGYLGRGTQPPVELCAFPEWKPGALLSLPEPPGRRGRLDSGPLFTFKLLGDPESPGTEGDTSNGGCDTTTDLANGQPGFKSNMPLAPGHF

Leukotriene C4 synthase = biological target: T3, Leukotriene C4 synthase (Cavia porcellus, UniProt A6XA80); assay type: tissue-based, Lung;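 note: enzyme inhibition assay of leukotriene C4 synthase, using LTA4 as the substrate; in other assays of this panel Not Active means under 50% inhibition at 10 µM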
T3 sequence (A6XA80 whole entry): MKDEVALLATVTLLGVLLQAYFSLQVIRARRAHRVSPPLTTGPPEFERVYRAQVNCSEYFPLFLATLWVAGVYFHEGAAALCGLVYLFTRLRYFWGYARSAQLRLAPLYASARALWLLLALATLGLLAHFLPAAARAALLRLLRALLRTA

[5] = DRUGMATRIX: Atrial Natriuretic Factor (ANF) radioligand binding (ligand: [125I] ANF (rat)); assay type: cell membranes, Cavia porcellus, Dunkin-Hartley, Adrenal gland, Membrane; conditions: Not Active = under 50% inhibition at 10 µM
[6] = biological target: T4, Nitric oxide synthase, inducible (Mus musculus, UniProt P29477); design: species or system Escherichia coli;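 note: inhibition of iNOS enzyme activity measured with L-arginine as substrate; in other assays of this panel Not Active means under 50% inhibition at 10 µM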
T4 sequence (P29477 whole entry): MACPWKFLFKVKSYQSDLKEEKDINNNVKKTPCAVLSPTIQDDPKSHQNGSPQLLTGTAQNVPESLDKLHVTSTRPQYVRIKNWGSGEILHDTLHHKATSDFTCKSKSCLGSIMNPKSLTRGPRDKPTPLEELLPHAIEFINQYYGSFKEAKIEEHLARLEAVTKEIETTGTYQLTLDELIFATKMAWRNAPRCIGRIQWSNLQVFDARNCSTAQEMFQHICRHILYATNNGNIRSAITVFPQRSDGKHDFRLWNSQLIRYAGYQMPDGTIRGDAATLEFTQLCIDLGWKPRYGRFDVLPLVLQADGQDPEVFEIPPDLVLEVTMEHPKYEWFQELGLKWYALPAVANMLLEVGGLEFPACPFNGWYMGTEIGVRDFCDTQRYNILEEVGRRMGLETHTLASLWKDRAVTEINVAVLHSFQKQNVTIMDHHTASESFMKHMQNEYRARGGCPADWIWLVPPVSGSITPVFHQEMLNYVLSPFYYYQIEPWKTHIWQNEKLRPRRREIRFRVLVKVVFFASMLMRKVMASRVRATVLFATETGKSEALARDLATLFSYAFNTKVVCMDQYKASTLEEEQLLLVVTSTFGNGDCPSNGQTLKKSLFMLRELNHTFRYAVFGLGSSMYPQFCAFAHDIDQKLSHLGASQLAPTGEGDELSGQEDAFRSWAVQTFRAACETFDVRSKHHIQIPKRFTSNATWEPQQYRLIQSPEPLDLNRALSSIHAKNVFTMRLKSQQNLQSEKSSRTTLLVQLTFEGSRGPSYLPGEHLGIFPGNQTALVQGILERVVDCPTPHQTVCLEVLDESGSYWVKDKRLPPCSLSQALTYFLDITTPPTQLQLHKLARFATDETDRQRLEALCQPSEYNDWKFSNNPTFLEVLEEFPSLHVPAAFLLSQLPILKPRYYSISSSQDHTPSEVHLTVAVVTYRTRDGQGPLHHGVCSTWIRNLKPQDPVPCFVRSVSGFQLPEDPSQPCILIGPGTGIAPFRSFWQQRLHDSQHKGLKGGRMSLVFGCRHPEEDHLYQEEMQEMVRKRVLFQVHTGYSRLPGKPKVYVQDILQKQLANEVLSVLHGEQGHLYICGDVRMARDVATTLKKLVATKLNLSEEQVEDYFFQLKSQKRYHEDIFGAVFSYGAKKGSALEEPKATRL

[7] = biological target: T5, Neuropeptide Y receptor type 1 (Homo sapiens, UniProt P25929); assay type: cell membranes, Membrane; conditions: sk-n-mc; note: in other assays of this panel Not Active means under 50% inhibition at 10 µM
T5 sequence (P25929 whole entry): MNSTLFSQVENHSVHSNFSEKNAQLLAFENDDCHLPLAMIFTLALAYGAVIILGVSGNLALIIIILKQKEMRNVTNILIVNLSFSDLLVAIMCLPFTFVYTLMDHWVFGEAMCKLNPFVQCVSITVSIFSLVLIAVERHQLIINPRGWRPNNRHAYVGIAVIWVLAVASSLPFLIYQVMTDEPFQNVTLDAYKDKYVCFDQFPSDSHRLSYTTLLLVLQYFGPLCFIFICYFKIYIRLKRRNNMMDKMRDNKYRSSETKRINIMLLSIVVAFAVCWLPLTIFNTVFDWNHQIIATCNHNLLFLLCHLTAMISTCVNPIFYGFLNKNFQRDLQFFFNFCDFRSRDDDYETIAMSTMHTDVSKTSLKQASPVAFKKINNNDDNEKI

Compound | IC50 [1] | IC50 [2] | Ki [2] | IC50 [3] | Ki [3] | pIC50 [4] | pKi [4] | IC50 (Leukotriene C4 synthase) | IC50 [5] | Ki [5] | IC50 [6] | IC50 [7] | IC50 [4] | Ki [1] | Ki [4] | Ki (Leukotriene C4 synthase) | Ki [6] | Ki [7]
OC(CCCN1CCCCC1)(c1ccccc1)c1ccccc1 [DIPHENIDOL] | Not Active | Not Active | Not Active | Not Active | Not Active | 5.32 | 5.58 | Not Active | Not Active | Not Active | Not Active | Not Active | – | – | – | – | – | –
CCC(=O)O[C@]1(C(=O)CCl)[C@@H](C)C[C@H]2[C@@H]3CCC4=CC(=O)C=C[C@]4(C)[C@@]3(F)[C@@H](O)C[C@@]21C [CLOBETASOL PROPIONATE] | Not Active | Not Active | Not Active | Not Active | Not Active | – | – | Not Active | Not Active | Not Active | Not Active | Not Active | Not Active | – | – | – | – | –
CCCN(CCC)S(=O)(=O)c1ccc(C(=O)O)cc1 [PROBENECID] | Not Active | Not Active | Not Active | Not Active | Not Active | – | – | Not Active | Not Active | Not Active | Not Active | Not Active | Not Active | – | – | – | – | –
O=C(O)CCNC(=O)c1ccccc1 [BETAMIPRON] | Not Active | Not Active | Not Active | Not Active | Not Active | – | – | Not Active | Not Active | Not Active | Not Active | Not Active | Not Active | – | – | – | – | –
C[C@H]1O[C@@H](n2cc(F)c(=O)[nH]c2=O)[C@H](O)[C@@H]1O [DOXIFLURIDINE] | Not Active | Not Active | Not Active | Not Active | Not Active | – | – | Not Active | Not Active | Not Active | Not Active | Not Active | Not Active | – | – | – | – | –
CC[C@H]1CN2CCc3cc(OC)c(OC)cc3[C@@H]2C[C@@H]1C[C@H]1NCCc2cc(OC)c(OC)cc21 [EMETINE] | Not Active | Not Active | Not Active | Not Active | Not Active | 5.71 | 5.97 | Not Active | Not Active | Not Active | Not Active | Not Active | – | – | – | – | – | –
O=c1cnn([C@@H]2O[C@H](CO)[C@@H](O)[C@H]2O)c(=O)[nH]1 [6-AZAURIDINE] | Not Active | Not Active | Not Active | Not Active | Not Active | – | – | Not Active | Not Active | Not Active | Not Active | Not Active | Not Active | – | – | – | – | –
COC(=O)CCc1ccc(OCC(O)CNC(C)C)cc1 (stereo not drawn) [ESMOLOL] | Not Active | Not Active | Not Active | Not Active | Not Active | – | – | Not Active | Not Active | Not Active | Not Active | Not Active | Not Active | – | – | – | – | –
C[C@@H]1O[C@@H](O[C@@H]2C=C3CC[C@@H]4[C@H](CC[C@]5(C)[C@@H](c6ccc(=O)oc6)CC[C@]45O)[C@@]3(C)CC2)[C@H](O)[C@H](O)[C@H]1O [PROSCILLARIDIN] | Not Active | Not Active | Not Active | Not Active | Not Active | – | – | Not Active | Not Active | Not Active | Not Active | Not Active | Not Active | – | – | – | – | –
NYSTATIN | Not Active | Not Active | Not Active | Not Active | Not Active | – | – | Not Active | Not Active | Not Active | Not Active | Not Active | Not Active | Not Active | Not Active | Not Active | Not Active | Not Active
COc1cc(N)c(Cl)cc1C(=O)NC1CCN(CCCOc2ccc(F)cc2)CC1OC (stereo not drawn) [CISAPRIDE] | Not Active | Not Active | Not Active | Not Active | Not Active | 7.80 | 8.06 | Not Active | Not Active | Not Active | Not Active | Not Active | – | – | – | – | – | –
C[C@@H]1C[C@H]2[C@@H]3CCC4=CC(=O)C=C[C@]4(C)[C@@]3(F)[C@@H](O)C[C@]2(C)[C@@]1(O)C(=O)CO [DEXAMETHASONE] | Not Active | Not Active | Not Active | Not Active | Not Active | – | – | Not Active | Not Active | Not Active | Not Active | Not Active | Not Active | – | – | – | – | –
O=C(c1ccccc1C(F)(F)F)N1CCC(Cc2ccccc2)CC1 | Not Active | Not Active | Not Active | Not Active | Not Active | – | – | Not Active | Not Active | Not Active | Not Active | Not Active | Not Active | – | – | – | – | –
Brc1c(NC2=NCCN2)ccc2nccnc12 [BRIMONIDINE] | Not Active | Not Active | Not Active | Not Active | Not Active | – | – | Not Active | Not Active | Not Active | Not Active | Not Active | Not Active | – | – | – | – | –
CC1(C)S[C@@H]2[C@H](NC(=O)[C@H](N)c3ccccc3)C(=O)N2[C@H]1C(=O)O [AMPICILLIN] | Not Active | Not Active | Not Active | Not Active | Not Active | – | – | Not Active | Not Active | Not Active | Not Active | Not Active | Not Active | – | – | – | – | –
